{"source": "patent US8236984B2", "about": "“Compound and use thereof in the treatment of amyloidosis” (Pentraxin Therapeutics Ltd., priority 2007, dated 2012)", "key": {"[1]": {"experiment": "Solubility as noted for calorimetry", "assay_type": "physicochemical", "settings": "in words, reason ITC could not be performed"}, "L55P transthyretin": {"molecular_target": "T1, L55P transthyretin (Homo sapiens, UniProt P02766, L75P)", "T1 construct": "made in house", "experiment": "Mass spectrometric analysis of ligand dissociation under increasing cone voltage", "assay_type": "binding", "settings": "equimolar 4.4 μM with wild type, 2 fold excess of ligand", "text": "4.3. Mass spectrometric analysis of dissociation of 4ajm15 from wild type and amyloidogenic variant transthyretin. ESMS spectra were acquired under increasing cone voltage conditions to induce stepwise dissociation of the ligand from wild type transthyretin and amyloidogenic variants V30M and L55P transthyretin. As the cone voltage increases splitting becomes apparent in the tetramer peaks, corresponding to apo (protein alone) and holo (protein+ligand) transthyretin as ligand begins to dissociate.\nL55P transthyretin and [^15N, ^13C] wild type transthyretin in a 2 fold excess of 4ajm15. […] In spectrum β the onset of 4ajm15 dissociation from wild type tetramer is observed (a) while no ligand dissociation is observed from L55P transthyretin. Dissociation from wild type transthyretin progresses with increasing collisional energy in spectrum γ, but it is not until spectrum δ, where approximately 50% of the wild type is apo, that ligand dissociation from L55P transthyretin is observed (a)."}, "transthyretin": {"molecular_target": "T2, transthyretin (Homo sapiens, UniProt P02766)", "T2 construct": "Native tetrameric transthyretin was purified from fractionated human plasma; from tissue; host or cells: human plasma", "experiment": "Analytical ultracentrifugation (sedimentation velocity and equilibrium)", "assay_type": "biochemical", "procedure": "4.1. Analytical ultracentrifugation. Sedimentation velocity and equilibrium analytical centrifugation experiments were performed at 20° C. on a Beckman XL-I instrument equipped with an An50Ti rotor in which both absorbance (recorded at a wavelength of 280 nm) and interference scans were recorded simultaneously. Sedimentation analyses were performed at pH 4.4 by incubating the protein (3.6 μM) for 72 h under the conditions of the stagnant transthyretin aggregation-inhibition assay (Petrassi et al., 2000) in presence of the ligand (3.6 μM). […] Sedimentation velocity data were acquired over 8 h at rotor speed of 42,000 rpm in two-sector cells with solution column heights of 12 mm. Absorbance values were modelled as a continuous distribution of sedimentation coefficients, c(s) (Schuck, 2000) using the software SEDFIT (Schuck, 2005). Sedimentation equilibrium measurements of transthyretin bound to the ligand, in the same conditions used for the sedimentation velocity analysis, were acquired using six-sector cells in an AnTi 50 rotor with column heights of 2 mm at rotor speed of 17,000 rpm until equilibrium was reached as shown by the perfect overlay of runs measured at intervals of 5 h. A final run at 42,000 rpm was performed at the end of the experiment to determine the background levels for use in curve fitting. Data analysis was performed using Beckman software provided as an add-on to Origin Version 4.1 (Microcal Inc.) for which the partial specific volume was calculated to be 0.7353 ml/g from the amino acid sequence (Perkins, 1986). The buffer density and viscosity were calculated using the program […] (Laue et al., 1992). […] Sedimentation equilibrium analysis of transthyretin in the presence of the ligand was entirely consistent with a single species of mass 55,784±107.87 Da, in good agreement with the calculated molecular mass of tetrameric wild type transthyretin with bound 4ajm15 (55794 Da). […]"}, "[2]": {"molecular_target": "T3, thyroxine binding globulin (TBG) (Homo sapiens, UniProt P05543)", "T3 construct": "from tissue; host or cells: whole serum", "T3 sequence (P05543 21-415)": "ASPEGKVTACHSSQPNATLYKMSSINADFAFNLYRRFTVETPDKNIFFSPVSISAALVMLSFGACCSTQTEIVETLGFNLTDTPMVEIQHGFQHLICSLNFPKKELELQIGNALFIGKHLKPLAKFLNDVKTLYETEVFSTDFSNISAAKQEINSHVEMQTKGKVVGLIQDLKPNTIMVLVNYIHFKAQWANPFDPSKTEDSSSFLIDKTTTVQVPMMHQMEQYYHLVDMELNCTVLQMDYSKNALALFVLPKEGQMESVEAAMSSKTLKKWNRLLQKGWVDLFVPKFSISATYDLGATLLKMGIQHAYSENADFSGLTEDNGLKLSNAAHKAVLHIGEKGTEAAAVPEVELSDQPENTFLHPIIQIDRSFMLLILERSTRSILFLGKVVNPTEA", "experiment": "T4 displacement from T4 binding proteins in whole serum (agarose gel electrophoresis, densitometry)", "settings": "increasing concentrations of ligand", "text": "3.2.3.3. […] After the electrophoresis, the proteins were transferred by capillary diffusion to a nitrocellulose membrane and subjected to phosphor imaging (Typhoon 8600; […], Amersham Biosciences). The two known T4-binding proteins, transthyretin and thyroxine binding globulin (TBG), were distinctly visualized, while albumin binding appears as a radioactive smear between them."}, "V30M transthyretin": {"molecular_target": "T4, V30M transthyretin (Homo sapiens, UniProt P02766, V50M)", "T4 construct": "made in house", "experiment": "Mass spectrometric analysis of subunit exchange", "assay_type": "biochemical", "settings": "2-fold molar excess of ligand, data not shown", "procedure": "4.2 Mass spectrometric analysis of subunit exchange. Recombinant wild type, L55P and V30M transthyretin variants were biosynthetically labelled with isotopes [^15N] and [^15N, ^13C] as previously described (Keetch C A et al, 2005). Immediately prior to analysis, proteins were buffer exchanged into 20 mM ammonium acetate, pH 7.0 using Micro Biospin columns (Bio-Rad, UK). The subunit composition of transthyretin was monitored as a function of time by incubating an equimolar solution (4.4 μM) of [^15N] and [^15N, ^13C] labelled proteins in the presence of 2-fold molar excess of 4ajm15 in DMSO or 2.5% DMSO alone as a control. Each experiment was carried out in triplicate at room temperature and at 4° C. as well, since it is known that subunit exchange is accelerated at low temperatures. Nanoflow ESMS was performed on a QToF2 instrument (Waters/Micromass UK, Ltd.) modified for high mass operation (Sobott et al, (2002)) and calibrated externally using caesium iodide (100 mg/ml). Each solution, 1.5 μl, was electrosprayed from gold coated borosilicate capillaries prepared in-house as described (Nettleton E J, et al, 1998). […]"}}, "note": "“Also recorded” adds a separate entry of the source."}
{"smiles": "O=C(O)c1ccccc1Nc1cc(Cl)c(OCCCCCCCCCCCOc2c(Cl)cc(Nc3ccccc3C(=O)O)cc2Cl)c(Cl)c1", "note": "[4ajm15, 2,2′-(4,4′-(undecane-1,11-diylbis(oxy))bis(3,5-dichloro-4,1-phenylene))bis(azanediyl)dibenzoic acid]", "values": [{"measurement": "solubility", "setting": "[1]", "value": "limited solubility; also recorded: too insoluble"}, {"measurement": "dissociation of ligand from L55P transthyretin", "setting": "L55P transthyretin", "value": "only at higher collisional energy than wild type"}, {"measurement": "proportion of wild type that is apo when dissociation from L55P is first observed (spectrum δ)", "setting": "L55P transthyretin", "value": "approximately 50%"}, {"measurement": "sedimentation coefficient of transthyretin with bound ligand", "setting": "transthyretin; 3.6 μM protein, 3.6 μM ligand, 72 h 37° C., pH 4.4", "value": 3.7, "unit": "S"}, {"measurement": "mass of single species by sedimentation equilibrium", "setting": "transthyretin; 3.6 μM protein, 3.6 μM ligand, pH 4.4", "value": "55,784±107.87 Da"}, {"measurement": "quaternary structure under tetramer-dissociating conditions", "setting": "transthyretin; 72 h at 37° C. and pH 4.4", "value": "remains tetrameric"}, {"measurement": "effect on binding of T4 by TBG", "setting": "[2]", "value": "did not affect"}, {"measurement": "subunit exchange of V30M transthyretin", "setting": "V30M transthyretin", "value": "Exactly the same effect"}]}
